Measurements reported in US20170334899A1, “AMINO-SUBSTITUTED ISOTHIAZOLES” (Bayer Pharma Aktiengesellschaft, priority 2014, published 2017).
pIC50: −log10 of the molar value. Blank lines part the entries; values can stand above or below the compound they belong to.

Test system: HeLa
Assay: Proliferation assay (crystal violet), HeLa
Format: cell-based
Settings: Homo sapiens, HeLa, 96 h, HeLa cells; 4 days incubation; crystal violet staining; read-out: IC50 inhibition of proliferation, HeLa
In short: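 Absorbance at 595 nm of crystal-violet-stained cells after 4 days' exposure to 0.001–10 μM compound (0.5% DMSO). Values normalized to a day-0 plate (0%) and untreated cells (100%); IC50 by 4-parameter fit.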

pIC50: < 5.00
SMILES: Cc1nsc(Nc2cncc(C(F)(F)F)n2)c1C(=O)Nc1ccc(F)c(C(N)=O)c1 [Example 204, N-(3-carbamoyl-4-fluorophenyl)-3-methyl-5-{[6-(trifluoromethyl)pyrazin-2-yl]amino}-1,2-thiazole-4-carboxamide]

pIC50: 5.29
SMILES: CC(=O)Nc1cc(NC(=O)c2c(C)nsc2Nc2cnc(C(F)(F)F)cn2)ccc1F [Example 206, N-(3-acetamido-4-fluorophenyl)-3-methyl-5-{[5-(trifluoromethyl)pyrazin-2-yl]amino}-1,2-thiazole-4-carboxamide]

pIC50: 6.28
SMILES: Cc1nsc(Nc2cncc(C(F)(F)F)n2)c1C(=O)Nc1ccc(OCCNC(=O)OC(C)(C)C)c(F)c1 [Example 216, tert-butyl [2-(2-fluoro-4-{[(3-methyl-5-{[6-(trifluoromethyl)pyrazin-2-yl]amino}-1,2-thiazol-4-yl)carbonyl]amino}phenoxy)ethyl]carbamate]

pIC50: 5.00
SMILES: Cc1nsc(Nc2cncc(C(F)(F)F)n2)c1C(=O)Nc1ccc(OC2CCN(C(C)C)CC2)nc1 [Example 218, N-{6-[(1-isopropylpiperidin-4-yl)oxy]pyridin-3-yl}-3-methyl-5-{[6-(trifluoromethyl)pyrazin-2-yl]amino}-1,2-thiazole-4-carboxamide]

pIC50: 5.21
SMILES: Cc1nsc(Nc2cncc(C(F)(F)F)n2)c1C(=O)Nc1ccc(C(=O)NC2CCN(C(=O)OC(C)(C)C)CC2)cc1 [Example 222, tert-butyl 4-[(4-{[(3-methyl-5-{[6-(trifluoromethyl)pyrazin-2-yl]amino}-1,2-thiazol-4-yl)carbonyl]amino}benzoyl)amino] piperidine-1-carboxylate]

pIC50: 5.08
SMILES: Cc1nsc(Nc2cncc(C(F)(F)F)n2)c1C(=O)Nc1ccc(C(=O)NC2CCN(CC(F)F)CC2)cc1 [Example 225, N-N-(4-{[1-(2,2-difluoroethyl)piperidin-4-yl]carbamoyl}phenyl)-3-methyl-5-{[6-(trifluoromethyl)pyrazin-2-yl]amino}-1,2-thiazole-4-carboxamide]

pIC50: 6.04
SMILES: Cc1nsc(Nc2cncc(C(F)(F)F)n2)c1C(=O)Nc1ccc(OCC2CCN(C(=O)OC(C)(C)C)CC2)nc1 [Example 226, tert-butyl 4-{[(5-{[(3-methyl-5-{[6-(trifluoromethyl)pyrazin-2-yl]amino}-1,2-thiazol-4-yl)carbonyl]amino}pyridin-2-yl)oxy]methyl}piperidine-1-carboxylate]

pIC50: 6.57
SMILES: Cc1nsc(Nc2cnc(C(F)(F)F)cn2)c1C(=O)Nc1ccc(OCC2CCCN(C(=O)OC(C)(C)C)C2)nc1 (stereo not drawn) [Example 228, tert-butyl 3-{[(5-{[(3-methyl-5-{[5-(trifluoromethyl)pyrazin-2-yl]amino}-1,2-thiazol-4-yl)carbonyl]amino}pyridin-2-yl)oxy]methyl}piperidine-1-carboxylate]

pIC50: 6.72
SMILES: Cc1nsc(Nc2cnc(C(F)(F)F)cn2)c1C(=O)Nc1ccc(F)c(OC2CCN(C(=O)OC(C)(C)C)CC2)c1 [Example 229, tert-butyl 4-(2-fluoro-5-{[(3-methyl-5-{[5-(trifluoromethyl)pyrazin-2-yl]amino}-1,2-thiazol-4-yl)carbonyl]amino}phenoxy)piperidine-1-carboxylate]

pIC50: 5.74
SMILES: Cc1nsc(Nc2cnc3ccccc3n2)c1C(=O)Nc1ccc(Oc2cccnc2)nc1 [Example 231, 3-methyl-N-[6-(pyridin-3-yloxy)pyridin-3-yl]-5-(quinoxalin-2-ylamino)-1,2-thiazole-4-carboxamide]

Further lines, the compound ahead of its results:

SMILES: Cc1nsc(Nc2ccc(C#N)cn2)c1C(=O)Nc1ccc(F)c(C(N)=O)c1 [Example 203, N-(3-carbamoyl-4-fluorophenyl)-5-[(5-cyanopyridin-2-yl)amino]-3-methyl-1,2-thiazole-4-carboxamide]
pIC50: < 5.00

SMILES: CC(=O)Nc1cc(NC(=O)c2c(C)nsc2Nc2cnccn2)ccc1F [Example 205, N-(3-acetamido-4-fluorophenyl)-3-methyl-5-(pyrazin-2-ylamino)-1,2-thiazole-4-carboxamide]
pIC50: < 5.00

SMILES: CNC(=O)c1ccc(NC(=O)c2c(C)nsc2Nc2cnc3ccccc3n2)cc1F [Example 207, N-[3-fluoro-4-(methylcarbamoyl)phenyl]-3-methyl-5-(quinoxalin-2-ylamino)-1,2-thiazole-4-carboxamide]
pIC50: < 5.00

SMILES: CNC(=O)c1ccc(NC(=O)c2c(C)nsc2Nc2ccc(C#N)cn2)cc1F [Example 208, 5-[(5-cyanopyridin-2-yl)amino]-N-[3-fluoro-4-(methylcarbamoyl)phenyl]-3-methyl-1,2-thiazole-4-carboxamide]
pIC50: 5.22

SMILES: Cc1nsc(Nc2cncc(C(F)(F)F)n2)c1C(=O)Nc1ccc(OCCCN)nc1 [Example 209, N-[6-(3-aminopropoxy)pyridin-3-yl]-3-methyl-5-{[6-(trifluoromethyl)pyrazin-2-yl]amino}-1,2-thiazole-4-carboxamide]
pIC50: < 5.00

SMILES: CNS(=O)(=O)c1ccc(NC(=O)c2c(C)nsc2Nc2cc(C#N)ccn2)cc1 [Example 210, 5-[(4-cyanopyridin-2-yl)amino]-3-methyl-N-[4-(methylsulfamoyl)phenyl]-1,2-thiazole-4-carboxamide]
pIC50: 5.72

SMILES: CNS(=O)(=O)c1ccc(NC(=O)c2c(C)nsc2Nc2cncc(C(F)(F)F)n2)cc1 [Example 211, 3-methyl-N-[4-(methylsulfamoyl)phenyl]-5-{[6-(trifluoromethyl)pyrazin-2-yl]amino}-1,2-thiazole-4-carboxamide]
pIC50: 5.00

SMILES: CNS(=O)(=O)c1ccc(NC(=O)c2c(C)nsc2Nc2cnc(C(F)(F)F)cn2)cc1 [Example 212, 3-methyl-N-[4-(methylsulfamoyl)phenyl]-5-{[5-(trifluoromethyl)pyrazin-2-yl]amino}-1,2-thiazole-4-carboxamide]
pIC50: < 5.00

SMILES: Cc1nsc(Nc2cnc(C(F)(F)F)cn2)c1C(=O)Nc1ccc(C(=O)NCCN2CCCC(F)C2)cc1 (stereo not drawn) [Example 213, N-(4-{[2-(3-fluoropiperidin-1-yl)ethyl]carbamoyl}phenyl)-3-methyl-5-{[5-(trifluoromethyl)pyrazin-2-yl]amino}-1,2-thiazole-4-carboxamide]
pIC50: 5.60

SMILES: Cc1nsc(Nc2cncc(C(F)(F)F)n2)c1C(=O)Nc1ccc(C(=O)NCCN2CCCC(F)(F)C2)cc1 [Example 214, N-(4-{[2-(3,3-difluoropiperidin-1-yl)ethyl]carbamoyl}phenyl)-3-methyl-5-{[6-(trifluoromethyl)pyrazin-2-yl]amino}-1,2-thiazole-4-carboxamide]
pIC50: 5.34

SMILES: Cc1nsc(Nc2cnc(C(F)(F)F)cn2)c1C(=O)Nc1ccc(OCCNC(=O)OC(C)(C)C)c(F)c1 [Example 215, tert-butyl [2-(2-fluoro-4-{[(3-methyl-5-{[5-(trifluoromethyl)pyrazin-2-yl]amino}-1,2-thiazol-4-yl)carbonyl]amino}phenoxy)ethyl]carbamate]
pIC50: 6.85

SMILES: Cc1nsc(Nc2cnc(C(F)(F)F)cn2)c1C(=O)Nc1ccc(OC2CCN(C(=O)OC(C)(C)C)CC2)c(F)c1 [Example 217, tert-butyl 4-(2-fluoro-4-{[(3-methyl-5-{[5-(trifluoromethyl)pyrazin-2-yl]amino}-1,2-thiazol-4-yl)carbonyl]amino}phenoxy)piperidine-1-carboxylate]
pIC50: 6.77

SMILES: Cc1nsc(Nc2cncc(C(F)(F)F)n2)c1C(=O)Nc1ccc(OC2CCN(C)CC2)nc1 [Example 219, 3-methyl-N-{6-[(1-methylpiperidin-4-yl)oxy]pyridin-3-yl}-5-{[6-(trifluoromethyl)pyrazin-2-yl]amino}-1,2-thiazole-4-carboxamide]
pIC50: < 5.00

SMILES: Cc1nsc(Nc2cnc(C(F)(F)F)cn2)c1C(=O)Nc1ccc(OC2CCN(C)CC2)nc1 [Example 220, 3-methyl-N-{6-[(1-methylpiperidin-4-yl)oxy]pyridin-3-yl}-5-{[5-(trifluoromethyl)pyrazin-2-yl]amino}-1,2-thiazole-4-carboxamide]
pIC50: 5.21

SMILES: Cc1nsc(Nc2cnc(C(F)(F)F)cn2)c1C(=O)Nc1ccc(OCCN)c(F)c1 [Example 221, 3-N-[4-(2-aminoethoxy)-3-fluorophenyl]-3-methyl-5-{[5-(trifluoromethyl)pyrazin-2-yl]amino}-1,2-thiazole-4-carboxamide]
pIC50: 5.60

SMILES: Cc1nsc(Nc2cncc(C(F)(F)F)n2)c1C(=O)Nc1ccc(OC2CCN(CCF)CC2)c(F)c1 [Example 223, N-(3-fluoro-4-{[1-(2-fluoroethyl)piperidin-4-yl]oxy}phenyl)-3-methyl-5-{[6-(trifluoromethyl)pyrazin-2-yl]amino}-1,2-thiazole-4-carboxamide]
pIC50: 6.12

SMILES: Cc1nsc(Nc2cncc(C(F)(F)F)n2)c1C(=O)Nc1ccc(OC2CCN(CC(F)F)CC2)c(F)c1 [Example 224, N-(4-{[1-(2,2-difluoroethyl)piperidin-4-yl]oxy}-3-fluorophenyl)-3-methyl-5-{[6-(trifluoromethyl)pyrazin-2-yl]amino}-1,2-thiazole-4-carboxamide]
pIC50: 6.49

SMILES: Cc1nsc(Nc2cnc(C(F)(F)F)cn2)c1C(=O)Nc1ccc(OCC2CCN(C(=O)OC(C)(C)C)CC2)nc1 [Example 227, tert-butyl 4-{[(5-{[(3-methyl-5-{[5-(trifluoromethyl)pyrazin-2-yl]amino}-1,2-thiazol-4-yl)carbonyl]amino}pyridin-2-yl)oxy]methyl}piperidine-1-carboxylate]
pIC50: 5.70

SMILES: Cc1nsc(Nc2cc(C#N)ccn2)c1C(=O)Nc1ccc(Oc2cccc(C(F)(F)F)c2)nc1 [Example 230, 5-[(4-cyanopyridin-2-yl)amino]-3-methyl-N-{6-[3-(trifluoromethyl)phenoxy]pyridin-3-yl}-1,2-thiazole-4-carboxamide]
pIC50: 6.24

SMILES: Cc1nsc(Nc2cnc3ccccc3n2)c1C(=O)Nc1ccc(Oc2ccc(SC(F)(F)F)cc2)nc1 [Example 233, 3-methyl-5-(quinoxalin-2-ylamino)-N-(6-{4-[(trifluoromethyl)sulfanyl]phenoxy}pyridin-3-yl)-1,2-thiazole-4-carboxamide]
pIC50: < 5.00
